Source: US20220249599A1, “TREATMENT OF IMPLANTS WITH ENGINEERED ANTIMICROBIAL AMPHIPHILIC PEPTIDES” (priority 2018, published 2022)
Where two headings read alike, the source gives them in different places. Ends that are not written are not given here.

Assays:
[1] = test system: Staphylococcus aureus (n = 104); assay: microbe, parasite or virus in culture; assay type: cell-based
Procedure: The clinical isolates were obtained from USA hospitals. […] Plates were incubated at 35° C. overnight.

[2] = rat; for AUCinf / AUClast / Cmax / Extrapolated / MRTlast / T1/2: Mean; for Tmax: individual animals
Procedure: Male Sprague-Dawley Rats will be received from an approved vendor with a single jugular vein cannula (JVC) and allowed to acclimate to the Test Facility for at least 2 days prior to study start. Animals will be weighed prior to dosing. No fasting will be required.
Intravenous administration will be via 30 minute infusion into a JVC. Following dosing, the catheter will be flushed with ˜0.5 mL saline and tied off to prevent re-access.
Serial blood samples will be collected via jugular vein cannula (JVC) or by another approved method if patency is lost. The final blood samples will be obtained via direct cardiac puncture following inhalation anesthesia.
Blood samples will be collected into K2EDTA tubes and stored on wet ice. Whole blood will be processed to plasma by centrifugation (3500 rpm at 5° C.) within 30 minutes of collection. Plasma samples will be transferred into 96 well plates (matrix tubes) and stored at −80° C. until analysis. Administered doses will be determined gravimetrically.
Prior to extraction, a known concentration of a mass-adjusted internal standard (IS) will be added to assess recovery and allow for quantitation. Purified samples will be further subjected to high-performance liquid chromatography (HPLC) using C18 300 or 130 angstrom columns prior to MS/MS analysis. Multiple charge states will be observed by MS, so MS/MS will be employed to enable multiple reaction monitoring (MRM) analyses to determine the most MRM transitions with the highest signal-to-noise gain. Compound plasma concentrations will be determined by comparing to and compensating with co-purified IS peak intensity and validated calibrated standard curves.
Pharmacokinetic parameters will be calculated using non-compartmental methods as implemented in the Phoenix® WinNonlin® ver. 6.3 comprehensive TK/PK analysis software program (Pharsight Corporation; Mountain View, Calif.) using an IV infusion model. Pharmacokinetic analysis will be conducted using a 30-minute intravenous infusion time. Therefore, 30 minutes will be added to each sample time point postdose to obtain nominal time for TK analysis. Nominal times and dosage levels will be used for all calculations. Values below the lower limit of quantitation (BLQ) will be assigned a value of zero for the pharmacokinetic calculations. Microsoft® Excel® 2013 will be used for receipt of bioanalytical data, minor formatting, including setting BLQ values to “0”, transfer into WinNonlin® for PK analysis, and calculation of the mean when an approximated value will be excluded. All plasma concentration data from all animals will be included in the analysis. Graphical presentations will be performed using Microsoft® Excel® 2013.

[3] = mouse
From the text: Male CD-1 mice will be received from an approved vendor and allowed to acclimate for a minimum of two days. Fasting will be not required.
All dosing syringes will be weighed prior to and following dosing. IV doses will be administered as a slow bolus (over ˜30 seconds) via direct venipuncture of a tail vein. All animals will be observed at dosing and each scheduled collection. All abnormalities will be recorded.
Terminal blood samples will be collected via cardiac puncture following inhalation anesthesia.
Sample Processing and Storage: Blood samples will be collected into K2EDTA tubes and stored on wet ice. Whole blood will be processed to plasma by centrifugation (3500 rpm at 5° C.) within 30 minutes of collection. Plasma samples will be split into 2 equal aliquots and each transferred into 96 well plates (matrix tubes) and stored at −80° C. until analysis. Administered doses will be determined gravimetrically.

RRWVRRVRRVWRRVVRVVRRWVRR-NH2 (C-terminus assumed) [SEQ ID NO: 1]
MIC range ([1]; S. aureus MRSA isolates, n 104): 1 to 16 µg/mL | MIC range ([1]; Staphylococcus aureus (n = 104), all methicillin-resistant): 1 to 16 µg/mL | MIC50 ([1]; n = 104): 4 µg/mL | Mode (MIC) ([1]; n = 104): 4 µg/mL | AUCinf ([2]; Group 4 IV infusion 10 mg/kg): 80486 ng·h/mL | AUClast ([2]; Group 4 IV infusion 10 mg/kg): 80339 ng·h/mL | Cmax ([2]; Group 4 IV infusion 10 mg/kg): 67192 ng/mL | Extrapolated ([2]; Group 4 IV infusion 10 mg/kg): 0.186% | MRTlast ([2]; Group 4 IV infusion 10 mg/kg): 1.18 h | T1/2 ([2]; Group 4 IV infusion 10 mg/kg): 4.07 h | Tmax ([2]; Group 4 IV infusion 10 mg/kg): 0.5333 h | AUCinf ([2]; IV infusion 1 mg/kg): 787 ng·h/mL | AUClast ([2]; IV infusion 1 mg/kg): 757 ng·h/mL | Cmax ([2]; IV infusion 1 mg/kg): 1271 ng/mL | Extrapolated ([2]; IV infusion 1 mg/kg): 3.28% | MRTlast ([2]; IV infusion 1 mg/kg): 1.67 h | T1/2 ([2]; IV infusion 1 mg/kg): 6.16 h | Tmax ([2]; IV infusion 1 mg/kg): 0.5333 h | AUCinf ([2]; IV infusion 5 mg/kg): 25791 ng·h/mL | AUClast ([2]; IV infusion 5 mg/kg): 25683 ng·h/mL | Cmax ([2]; IV infusion 5 mg/kg): 30409 ng/mL | Extrapolated ([2]; IV infusion 5 mg/kg): 0.424% | MRTlast ([2]; IV infusion 5 mg/kg): 1.03 h | T1/2 ([2]; IV infusion 5 mg/kg): 5.43 h | Tmax ([2]; IV infusion 5 mg/kg): 0.5333 h | AUCIinf_D ([3]; IV Dose 3 mg/kg): <3500 kg·ng·h/mL/ng | AUCinf ([3]; IV Dose 3 mg/kg): <3500 ng·h/mL | Extrapolated ([3]; IV Dose 3 mg/kg): ~0.5% | MRTlast ([3]; IV Dose 3 mg/kg): ~0.5 h | T1/2 ([3]; IV Dose 3 mg/kg): ~8 h | AUCIinf_D ([3]; IV Dose 15 mg/kg): 3589 kg·ng·h/mL/ng | Extrapolated ([3]; IV Dose 15 mg/kg): 0.49%
